{
  "source": "patent US8575135B2",
  "about": "(Gilead Sciences, Inc., priority 2011, dated 2013)",
  "assay_in_all_cases": "microbe, parasite or virus in culture",
  "settings_in_all_cases": "Hepatitis C virus",
  "key": {"[1]": {"tested_on": "NS5A chimeric genotype 2a JFH-1 replicon with genotype 2a J6 strain NS5A gene (M31 present)", "assay_type": "cell-based, HCV"}, "[2]": {"tested_on": "NS5A chimeric genotype 2a JFH-1 replicon with genotype 2b MD2b-1 strain NS5A gene (M31 present)", "assay_type": "cell-based, HCV", "method_in_brief": "(§1)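 Con1-based 3a and 4a chimeras carried a Pi-RLuc reporter and were transiently transfected into Huh-Lunet cells; the JFH-1-based 2b chimera (RLuc-Neo) was used transiently or as stable replicon cells.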"}, "[3]": {"tested_on": "NS5A chimeric genotype 1b Con1 replicon with genotype 3a S52 strain NS5A gene", "assay_type": "cell-based, HCV", "method_in_brief": "as §1"}, "[4]": {"tested_on": "1a Pi-Rluc replicon with Q30R in genotype 1a NS5A", "assay_type": "cell-based, HCV", "procedure": "Antiviral potency (EC50) was determined using a Renilla luciferase (RLuc)-based HCV replicon reporter assay. […] To perform the assay for genotype 2a (with M31 present in NS5A) or 2b, NS5A chimeric genotype 2a JFH-1 replicons that encodes a RLuc-Neo reporter and either genotype 2a J6 strain NS5A gene or genotype 2b MD2b-1 strain NS5A gene (both with M31 present) respectively, were either transiently transfected (t) into Huh-Lunet cells or were established as stably replicating replicon cells (s) is provided. Either cells were dispensed into 384-well plates for EC50 assays. To perform the assay for genotype 3 and 4, NS5A chimeric genotype 1b Con1 replicons that encodes a Pi-RLuc reporter and either genotype 3a S52 strain NS5A gene or genotype 4a ED43 strain NS5A gene respectively, were transiently transfected (t) into Huh-Lunet cells, which were subsequently dispensed into 384-well plates. Compounds were dissolved in DMSO at a concentration of 10 mM and diluted in DMSO either manually or using an automated pipeting instrument. Serially 3-fold diluted compounds were either manually mixed with cell culture media and added to the seeded cells or directly added to the cells using an automated instrument. […] 72 hours later, cells were lysed and Renilla luciferase activity quantified as recommended by the manufacturer (Promega-Madison, Wis.). Non-linear regression was performed to calculate EC50 values.\nTo determine the antiviral potency (EC50) against resistance mutants, resistance mutations, including M28T, Q30R, Q30H, L31M, and Y93C in genotype 1a NS5A and Y93H in genotype 1b NS5A, were introduced individually into either 1a Pi-Rluc or 1b Pi-Rluc replicons by site directed mutagenesis. Replicon RNA of each resistant mutant was transiently transfected into Huh-7-derived cured-51 cells and antiviral potency was determined on these transfected cells as described above."}, "[5]": {"tested_on": "stable HCV 2a JFH-1 Rluc replicon cells (L31 present in NS5A)", "assay_type": "cell-based"}, "[6]": {"tested_on": "stable HCV 1a RLuc replicon cells (genotype 1a H77 replicon)", "assay_type": "cell-based"}, "[7]": {"tested_on": "NS5A chimeric genotype 1b Con1 replicon with genotype 4a ED43 strain NS5A gene", "assay_type": "cell-based, HCV"}},
  "note": "Like-named read-outs stand apart in the source and are kept apart here.",
  "data": [
    {"smiles": "COC[C@H]1C[C@@H](c2nc3ccc4cc5c(cc4c3[nH]2)OCc2cc(-c3cnc([C@@H]4CCCN4C(=O)[C@@H](NC(=O)OC)C(C)C)[nH]3)ccc2-5)N(C(=O)[C@H](N)c2ccccc2)C1", "note": "[Example OO, Methyl {(2S)-1-[(2S)-2-(5-{2-[(2S,4S)-1-[(2R)-2-amino-2-phenylacetyl]-4-(methoxymethyl)pyrrolidin-2-yl]-1,11-dihydroisochromeno[4′,3′:6,7]naphtho[1,2-d]imidazol-9-yl}-1H-imidazol-2-yl)pyrrolidin-1-yl]-3-methyl-1-oxobutan-2-yl}carbamate]", "values": [
      {"measurement": "EC50", "setting": "[1]; read-out: 2a J6", "value": "< 1", "unit": "nM"},
      {"measurement": "EC50", "setting": "[1]; read-out: 2a J6 (s) (nM)", "value": 0.259, "unit": "nM"},
      {"measurement": "EC50", "setting": "[1]; read-out: 2a Jb (t) (nM)", "value": 0.028, "unit": "nM"},
      {"measurement": "EC50", "setting": "[2]; read-out: 2b", "value": "< 1", "unit": "nM"},
      {"measurement": "EC50", "setting": "[2]; read-out: 2b (s) (nM)", "value": 0.076, "unit": "nM"},
      {"measurement": "EC50", "setting": "[2]; read-out: 2b (t) (nM)", "value": 0.02, "unit": "nM"},
      {"measurement": "EC50", "setting": "[3]; read-out: 3a", "value": "< 1", "unit": "nM"},
      {"measurement": "EC50", "setting": "[3]; read-out: 3a (nM)", "value": 0.028, "unit": "nM"},
      {"measurement": "EC50", "setting": "[4]; read-out: 1a Q30R", "value": "< 1", "unit": "nM"},
      {"measurement": "EC50", "setting": "[4]; read-out: 1a Q30R (nM)", "value": 0.139, "unit": "nM"},
      {"measurement": "EC50", "setting": "[5]; read-out: 2a JFH", "value": "< 1", "unit": "nM"},
      {"measurement": "EC50", "setting": "[5]; read-out: 2a JFH (nM)", "value": 0.015, "unit": "nM"},
      {"measurement": "EC50", "setting": "[6]; read-out: 1a", "value": "< 1", "unit": "nM"},
      {"measurement": "EC50", "setting": "[6]; read-out: 1a (nM)", "value": 0.072, "unit": "nM"},
      {"measurement": "EC50", "setting": "[7]; read-out: 4a", "value": "< 1", "unit": "nM"},
      {"measurement": "EC50", "setting": "[7]; read-out: 4a (s) (nM)", "value": 0.018, "unit": "nM"},
      {"measurement": "EC50", "setting": "[7]; read-out: 4a (t) (nM)", "value": 0.086, "unit": "nM"}
    ]},
    {"smiles": "COC(=O)N[C@H](C(=O)N1C[C@@H](C)C[C@H]1c1nc2ccc3cc4c(cc3c2[nH]1)OCc1cc(-c2cnc([C@@H]3CC[C@H](C)N3C(=O)[C@@H](NC(=O)OC)C(C)C)[nH]2)ccc1-4)C(C)C", "note": "[Example NC, Methyl {(2S)-1-[(2S,5S)-2-(5-{2-[(2S,4S)-1-{(2S)-2-[(methoxycarbonyl)amino]-3-methylbutanoyl}-4-methylpyrrolidin-2-yl]-1,11-dihydroisochromeno[4′,3′:6,7]naphtho[1,2-d]imidazol-9-yl}-1H-imidazol-2-yl)-5-methylpyrrolidin-1-yl]-3-methyl-1-oxobutan-2-yl}carbamate]", "values": [
      {"measurement": "EC50", "setting": "[1]; read-out: 2a J6", "value": "< 1", "unit": "nM"},
      {"measurement": "EC50", "setting": "[1]; read-out: 2a J6 (s) (nM)", "value": 0.762, "unit": "nM"},
      {"measurement": "EC50", "setting": "[1]; read-out: 2a Jb (t) (nM)", "value": 0.089, "unit": "nM"},
      {"measurement": "EC50", "setting": "[2]; read-out: 2b", "value": "< 1", "unit": "nM"},
      {"measurement": "EC50", "setting": "[2]; read-out: 2b (s) (nM)", "value": 0.191, "unit": "nM"},
      {"measurement": "EC50", "setting": "[2]; read-out: 2b (t) (nM)", "value": 0.068, "unit": "nM"},
      {"measurement": "EC50", "setting": "[3]; read-out: 3a", "value": "< 1", "unit": "nM"},
      {"measurement": "EC50", "setting": "[3]; read-out: 3a (nM)", "value": 0.014, "unit": "nM"},
      {"measurement": "EC50", "setting": "[4]; read-out: 1a Q30R", "value": "< 1", "unit": "nM"},
      {"measurement": "EC50", "setting": "[4]; read-out: 1a Q30R (nM)", "value": 0.06, "unit": "nM"},
      {"measurement": "EC50", "setting": "[5]; read-out: 2a JFH", "value": "< 1", "unit": "nM"},
      {"measurement": "EC50", "setting": "[5]; read-out: 2a JFH (nM)", "value": 0.005, "unit": "nM"},
      {"measurement": "EC50", "setting": "[6]; read-out: 1a", "value": "< 1", "unit": "nM"},
      {"measurement": "EC50", "setting": "[6]; read-out: 1a (nM)", "value": 0.007, "unit": "nM"},
      {"measurement": "EC50", "setting": "[7]; read-out: 4a", "value": "< 1", "unit": "nM"},
      {"measurement": "EC50", "setting": "[7]; read-out: 4a (s) (nM)", "value": 0.026, "unit": "nM"},
      {"measurement": "EC50", "setting": "[7]; read-out: 4a (t) (nM)", "value": 0.011, "unit": "nM"}
    ]},
    {"smiles": "COC[C@H]1C[C@@H](c2ncc(-c3ccc4c(c3)COc3cc5c(ccc6nc([C@@H]7CCCN7C(=O)[C@@H](NC(=O)OC)C(C)C)[nH]c65)cc3-4)[nH]2)N(C(=O)[C@H](NC(=O)OC)c2ccccc2)C1", "note": "[Example MU, methyl{(1R)-2-[(2S,4S)-2-(5-{2-[(2S)-1-{(2S)-2-[(methoxycarbonyl)amino]-3-methylbutanoyl}-pyrrolidin-2-yl]-1,11-dihydroisochromeno[4′,3′:6,7]naphtho[1,2-d]imidazol-9-yl}-1H-imidazol-2-yl)-4-(methoxymethyl)pyrrolidin-1-yl]-2-oxo-1-phenylethyl}carbamate]", "values": [
      {"measurement": "EC50", "setting": "[1]; read-out: 2a J6", "value": "< 1", "unit": "nM"},
      {"measurement": "EC50", "setting": "[1]; read-out: 2a J6 (s) (nM)", "value": 0.046, "unit": "nM"},
      {"measurement": "EC50", "setting": "[1]; read-out: 2a Jb (t) (nM)", "value": 0.013, "unit": "nM"},
      {"measurement": "EC50", "setting": "[2]; read-out: 2b", "value": "< 1", "unit": "nM"},
      {"measurement": "EC50", "setting": "[2]; read-out: 2b (s) (nM)", "value": 0.025, "unit": "nM"},
      {"measurement": "EC50", "setting": "[2]; read-out: 2b (t) (nM)", "value": 0.009, "unit": "nM"},
      {"measurement": "EC50", "setting": "[3]; read-out: 3a", "value": "< 1", "unit": "nM"},
      {"measurement": "EC50", "setting": "[3]; read-out: 3a (nM)", "value": 0.017, "unit": "nM"},
      {"measurement": "EC50", "setting": "[4]; read-out: 1a Q30R", "value": "< 1", "unit": "nM"},
      {"measurement": "EC50", "setting": "[4]; read-out: 1a Q30R (nM)", "value": 0.023, "unit": "nM"},
      {"measurement": "EC50", "setting": "[5]; read-out: 2a JFH", "value": "< 1", "unit": "nM"},
      {"measurement": "EC50", "setting": "[5]; read-out: 2a JFH (nM)", "value": 0.004, "unit": "nM"},
      {"measurement": "EC50", "setting": "[6]; read-out: 1a", "value": "< 1", "unit": "nM"},
      {"measurement": "EC50", "setting": "[6]; read-out: 1a (nM)", "value": 0.008, "unit": "nM"},
      {"measurement": "EC50", "setting": "[7]; read-out: 4a", "value": "< 1", "unit": "nM"},
      {"measurement": "EC50", "setting": "[7]; read-out: 4a (t) (nM)", "value": 0.011, "unit": "nM"}
    ]}
  ]
}
